Measured values: EP0187057A1, “2-Phenyl-isopropyl-allophanate, preparation and pharmaceutical application” (priority 1984, dated 1986)
“And” between values parts separate entries of the source, which are not always exact repeats. Equal entries are not always repeated. Where two headings read alike, the source gives them in different places.

Columns and labels:
[1] = Acute toxicity by the digestive route, lethality after one week of observation; settings: in vivo, po, rat; for mortality at 168 h: read-out: Pourcentage de létalité Rats
Method: Des doses croissantes de produit (SCS 289) ont été administrées, par voie digestive, sous forme de suspensions gommeuses, sous le volume de 0,50 ml/20 g de poids corporel chez la souris et 0,50 ml/100 g de poids corporel chez le rat (de 500 à 4000 mg/kg avec des intervalles de 500 mg/kg).
Les animaux ont été maintenus en observation pendant une semaine, tout d'abord dans le laboratoire (avec un chauffage d'appoint) jusqu'au réveil des animaux endormis, puis dans l'unité animale conditionnée et climatisée.
Le taux de mortalité relevé dans chaque lot de rats et de souris au terme de la semaine d'observation a été le suivant :
Les valeurs des DL50, calculées par la méthode de Miller et Tainter sont respectivement de : • - 2300 ± 102 m^g/k^g chez la souris; • - 2050 + 220 mg/kg chez le rat.

[2] = system: myoclonies palpébrales provoquées par l'infusion veineuse de pentétrazol; test: Intravenous pentetrazol infusion producing palpebral myoclonus (threshold seizures); type: in vivo, lapin; settings: for Dose moyenne de pentétrazol: controls 23,0; for Quantité de pentétrazol nécessaire à l'apparition des myoclonies palpébrales / Temps d'infusion veineuse nécessaire à l'apparition des myoclonies palpébrales: individual animals; for Temps d'infusion veineuse nécessaire à l'apparition des myoclonies palpébrales: comma separates minutes and seconds
Description: (§1) Propriétés anticonvulsivantes : • On a effectué, pour déterminer ces propriétés anticonvulsivantes, des expérimentations sur le SCS 289 en procédant à des essais de protection : • - chez le lapin soumis à une transélectrification cranienne génératrice de crises épileptiformes de type "grand mal" ou recevant une infusion veineuse de pentétrazol provoquant l'apparition de myoclonies palpébrales; • - chez la souris recevant, par voie sous-cutanée des doses croissantes de pentétrazol entraînant convulsions et mort ou soumise à une transélectrification transcranienne à basse fréquence génératrice de crises psychomotrices.
Les résultats quant à la protection contre les crises pentétrazoliques liminaires génératrices de myaclonies palpébrales figurent dans les tableaux ci-après.
L'administration préalable de SCS 289 retarde l'apparition des myoclonies palpébrales provoquées par l'infusion veineuse de pentétrazol.
Une expérimentation similaire pratiquée en essais croisés a donné les résultats suivants pour divers anticonvulsivants de référence : […]

[3] = system: crises épileptiformes consécutives à l'électrochoc; test: Maximal electroshock producing epileptiform 'grand mal' seizures (1st and 2nd electroshock); type: in vivo, lapin
Description: as §1
Ne considérant comme significative, que la protection complète, les traitements pratiqués une heure avant le second électrochoc ont conféré les protection suivantes (sur groupes de dix lapins) :
Si, par ailleurs, on considère la protection contre les crises toniques (hyperextension des pattes postérieures), il apparaît également une synergie particulièrement aux doses associées de 200 mg/kg de produits.

crises pentétrazoliques = test: Convulsant and lethal effects of subcutaneous pentetrazol (125 mg/kg); type: in vivo, souris
Description: as §1
Pour déceler une synergie d'action antagoniste vis-à-vis des effets convulsivants et létaux du pentétrazol injecté par voie sous-cutanée chez la souris à la dose de 125 mg/kg, on a déterminé avec plus de précision la DE50 du SCS 289 et on a recherché si l'association avec le SCS 35 apportait un surcroit appréciable d'activité.
On n'a retenu comme significative que la protection à l'égard des effets létaux observés sur 24 heures.

[4] = Spontaneous motor activity; type: in vivo, souris; settings: mouse, in vivo, po; dose diminishing initial performance by 50 %; read-out: DA50 motricité
Description: (§2) On a donc étudié les effets dépresseurs que peuvent exercer des doses croissantes de SCS 289 sur : • - la motricité spontanée de la souris; • - sa curiosité, quantifiée par la méthode de la planche à trous; • - son agilité, évaluée par l'épreuve de la traction de Boissier et Simon; • - sa force musculaire, mesurée par l'épreuve des poids.
(§3) Les essais ont été pratiqués sur des groupes de 10 souris dont les performances motrices ont été mesurées à deux reprises : avant et une heure après traitement par le SCS 289 administré, par voie digestive à des doses allant de 10 à 200 mg/kg, actives vis-à-vis des convulsions pentétrazoliques et des crises psychomotrices. A noter que l'épreuve de la planche à trous utilisée pour chiffrer la curiosité des animaux (décompte du nombre de visites des trous) n'est pratiquée qu'une seule fois, le comportement explorateur des animaux traités étant alors comparé à celui des témoins.
(§4) Les résultats obtenus dans chaque groupe ont permis de calculer la DA50 capable de diminuer de 50 X les performances motrices initiales ou de diminuer de 50% la curiosité des souris traitées par rapport à celle des témoins.
(§5) Les expérimentations comportementales précédemment décrites ont été appliquées à des animaux recevant SCS 35 et SCS 289 aux doses de 10 et 25 mg/kg.

[5] = system: motricité spontanée de la souris; test: Spontaneous motor activity; type: in vivo
Description: as §2, §3, §4, §5

Narcotic effect = settings: mouse, in vivo; souris; read-out: DE50 narcotique
Method: En ce qui concerne la maniabilité, la comparaison des doses de SCS 289 exerçant, chez la souris, des effets létaux et anticonvulsivants permet de prévoir une marge thérapeutique assez confortable (dans le domaine du "petit mal") : • - DL50 = 2300 + 102 mg/kg; • - DE50 narcotique, comprise entre 1 et 2 g/kg; • - DE50 anticonvulsivante vis-à-vis du ^pentétrazol; • - DE50 anticonvulsivante vis-à-vis des crises psychomotrices.

[6] = lapins ayant reçu 50 mg/kg de SCS 289
[7] = lapins ayant reçu 100 mg/kg de SCS 289

CC(C)OC(=O)N(C(N)=O)c1ccccc1 [SCS 289, phényl-2 allophanate d'isopropyle]
LD50 at 168 h ([1]; voie digestive, méthode de Miller et Tainter, read-out: DL50): 2050 mg/kg
mortality at 168 h ([1]; 500 mg/kg voie digestive): 0%
mortality at 168 h ([1]; 1000 mg/kg voie digestive): 15%
mortality at 168 h ([1]; 1500 mg/kg voie digestive): 30%
mortality at 168 h ([1]; 2000 mg/kg voie digestive): 55%
mortality at 168 h ([1]; 2500 mg/kg voie digestive): 60%
mortality at 168 h ([1]; 3000 mg/kg voie digestive): 65%
mortality at 168 h ([1]; 3500 mg/kg voie digestive): 80%
mortality at 168 h ([1]; 4000 mg/kg voie digestive): 100%
Elévation du seuil myoclonique ([2]; 50 mg/kg): 61,7%
Dose moyenne de pentétrazol ([2]; 50 mg/kg): 37,2 mg/kg
Elévation du seuil myoclonique ([2]; 100 mg/kg): 113%
Dose moyenne de pentétrazol ([2]; 100 mg/kg): 49,2 mg/kg
Quantité de pentétrazol nécessaire à l'apparition des myoclonies palpébrales [2, 6]: 40,78 mg/kg and 42,58 mg/kg and 51,43 mg/kg and 33,33 mg/kg and 43,68 mg/kg and 32,44 mg/kg and 22,22 mg/kg and 40 mg/kg and 45,15 mg/kg and 20 mg/kg
Temps d'infusion veineuse nécessaire à l'apparition des myoclonies palpébrales [2, 6]: 26 minutes et secondes and 28 minutes et secondes (2×) and 36 minutes et secondes and 21,15 minutes et secondes and 31,40 minutes et secondes and 22,20 minutes et secondes and 15 minutes et secondes and 28,40 minutes et secondes and 16 minutes et secondes
Quantité de pentétrazol nécessaire à l'apparition des myoclonies palpébrales [2, 7]: 51,85 mg/kg and 51,81 mg/kg and 46,28 mg/kg and 64 mg/kg and > 68,44 mg/kg and 45,15 mg/kg and 56,67 mg/kg and 33,84 mg/kg and 37,71 mg/kg and 36,41 mg/kg
Temps d'infusion veineuse nécessaire à l'apparition des myoclonies palpébrales [2, 7]: 35 minutes et secondes and 37 minutes et secondes and 28 minutes et secondes and 32 minutes et secondes and > 45 minutes et secondes and 28,40 minutes et secondes and 34 minutes et secondes and 33 minutes et secondes (2×) and 35,30 minutes et secondes
activité vis-à-vis des myoclonies palpébrales du lapin par rapport au valproate de sodium ([2]; relative activity, lapin): dix fois plus actif
activité vis-à-vis des myoclonies palpébrales du lapin par rapport à la phénacétamide ([2]; relative activity, lapin): deux fois plus actif
% d'animaux protégés contre les seules crises toniques ([3]; 100 mg/kg, hyperextension tonique des pattes postérieures): 60%
% d'animaux protégés contre les seules crises toniques ([3]; 200 mg/kg): 50%
protection contre la forme tonique des convulsions (animals out of ten) ([3]; 200 mg/kg): cinq animaux sur dix
% d'animaux protégés complètement ([3]; 200 mg/kg, one hour before second electroshock, groups of ten rabbits): 20%
% de protection vis-à-vis de la létalité pentétrazolique (crises pentétrazoliques; 10 mg/kg): 20%
% de létalité en 24 h (crises pentétrazoliques; 10 mg/kg 1 h avant pentétrazol 125 mg/kg s.c., untreated 100): 80%
% de protection vis-à-vis de la létalité pentétrazolique (crises pentétrazoliques; 20 mg/kg): 70%
% de létalité en 24 h (crises pentétrazoliques; 20 mg/kg 1 h avant pentétrazol): 30%
% de protection vis-à-vis de la létalité pentétrazolique (crises pentétrazoliques; 30 mg/kg): 100%
% de létalité en 24 h (crises pentétrazoliques; 30 mg/kg 1 h avant pentétrazol): 0%
% de protection vis-à-vis de la létalité pentétrazolique (crises pentétrazoliques; 40 mg/kg): 100%
% de létalité en 24 h (crises pentétrazoliques; 40 mg/kg 1 h avant pentétrazol): 0%
% de protection vis-à-vis de la létalité pentétrazolique (crises pentétrazoliques; 50 mg/kg): 100%
% de létalité en 24 h (crises pentétrazoliques; 50 mg/kg 1 h avant pentétrazol): 0%
ED50 (crises pentétrazoliques; Mus musculus, sc, 24 h, souris, read-out: DE50 à l'égard des crises pentétrazoliques maximales et létales): 15 mg/kg
DL50/DE50 /pentétrazol (crises pentétrazoliques; index thérapeutique absolu, souris): 153
ED50 at 1 h [4]: 120 mg/kg
Propriétés déficitaires motrices sur la motricité (pourcentage de diminution des scores) ([5]; 10 mg/kg voie digestive, one hour after treatment): 0%
Propriétés déficitaires motrices sur la motricité (pourcentage de diminution des scores) ([5]; 25 mg/kg): 20%
Propriétés déficitaires motrices sur la motricité (pourcentage de diminution des scores) ([5]; 50 mg/kg): 25%
Propriétés déficitaires motrices sur la motricité (pourcentage de diminution des scores) ([5]; 75 mg/kg): 30%
Propriétés déficitaires motrices sur la motricité (pourcentage de diminution des scores) ([5]; 100 mg/kg): 50%
Propriétés déficitaires motrices sur la motricité (pourcentage de diminution des scores) ([5]; 150 mg/kg): 100%
Propriétés déficitaires motrices sur la motricité (pourcentage de diminution des scores) ([5]; 200 mg/kg): 100%
ED50 (Narcotic effect): 1000 to 2000 mg/kg
